Laboratory results as given in US10450311B2, “Pesticidally active heterocyclic derivatives with sulphur containing substituents” (Syngenta Participations AG, priority 2014, dated 2019).

What was measured:
Type in all cases: in vivo
[1] = system: Euschistus heros (Neotropical Brown Stink Bug); experiment: Activity against Euschistus heros, sprayed soybean leaf; conditions: 120 h, application rate of 200 ppm, N-2 nymphs on soybean leaf, 5 days after infestation
Method: Example B3: Activity Against Euschistus heros (Neotropical Brown Stink Bug)
Soybean leaf on agar in 24-well microtiter plates were sprayed with aqueous test solutions prepared from 10′000 ppm DMSO stock solutions. After drying the leaf were infested with N-2 nymphs. The samples were assessed for mortality 5 days after infestation.

[2] = system: Myzus persicae (Green Peach Aphid); experiment: Activity against Myzus persicae, sprayed sunflower leaf discs; conditions: foliar, 144 h, application rate of 200 ppm, aphid population of mixed ages on sunflower leaf discs, 6 days after infestation
Method: Example B5: Activity Against Myzus persicae (Green Peach Aphid)
(§1) Sunflower leaf discs were placed on agar in a 24-well microtiter plate and sprayed with aqueous test solutions prepared from 10′000 ppm DMSO stock solutions. After drying, the leaf discs were infested with an aphid population of mixed ages. The samples were assessed for mortality 6 days after infestation.

[3] = system: Tetranychus urticae (Two-Spotted Spider Mite); experiment: Activity against Tetranychus urticae, feeding/contact activity; conditions: foliar, 192 h
Method: Example B12: Activity Against Tetranychus urticae (Two-Spotted Spider Mite): Feeding/Contact Activity
Bean leaf discs on agar in 24-well microtiter plates were sprayed with aqueous test solutions prepared from 10′000 ppm DMSO stock solutions. After drying the leaf discs were infested with a mite population of mixed ages. The samples were assessed for mortality on mixed population (mobile stages) 8 days after infestation.

[4] = system: Bemisia tabaci (Cotton White Fly); experiment: Activity against Bemisia tabaci, sprayed cotton leaf discs; conditions: foliar, 144 h, application rate of 200 ppm, adult white flies on cotton leaf discs, 6 days after incubation
Method: Example B1: Activity Against Bemisia tabaci (Cotton White Fly)
Cotton leaf discs were placed on agar in 24-well microtiter plates and sprayed with aqueous test solutions prepared from 10′000 ppm DMSO stock solutions. After drying the leaf discs were infested with adult white flies. The samples were checked for mortality 6 days after incubation. […] A35, A36 and A47. A1. A2, A3, A8, A10, A14 and A12.

[5] = system: Diabrotica balteata (Corn Root Worm); experiment: Activity against Diabrotica balteata, sprayed maize sprouts; conditions: 96 h, application rate of 200 ppm, larvae on maize sprouts, 4 days after infestation
Method: Example B2: Activity Against Diabrotica balteata (Corn Root Worm)
Maize sprouts, placed on an agar layer in 24-well microtiter plates were treated with aqueous test solutions prepared from 10′000 ppm DMSO stock solutions by spraying. After drying, the plates were infested with […] (6 to 10 per well). The samples were assessed for mortality 4 days after infestation.

[6] = system: Frankliniella occidentalis (Western Flower Thrips); experiment: Activity against Frankliniella occidentalis, sprayed sunflower leaf discs; conditions: foliar, 168 h, application rate of 200 ppm, population of mixed ages on sunflower leaf discs, 7 days after infestation
Method: Example B4: Activity Against Frankliniella occidentalis (Western Flower Thrips)
as §1, with “in” for “in a”, “plates” for “plate”, “[…]” for “10′000 ppm”, “drying” for “drying,”, “a Frankliniella” for “an aphid”, “7” for “6”

[7] = system: Myzus persicae (Green Peach Aphid); experiment: Activity against Myzus persicae, roots of infested pea seedlings in test solution; conditions: 144 h, test rate of 24 ppm, 6 days
Method: Example B6: Activity Against Myzus persicae (Green Peach Aphid)
Roots of pea seedlings infested with an aphid population of mixed ages were placed directly in the aqueous test solutions prepared from 10′000 DMSO stock solutions. The samples were assessed for mortality 6 days after placing seedlings in test solutions.

[8] = system: Myzus persicae (Green Peach Aphid); experiment: Activity against Myzus persicae, sucrose solution under Parafilm; conditions: 120 h, test rate of 12 ppm, mixed with sucrose solution, 5 days after infestation
Excerpt: Example B7: Activity Against Myzus persicae (Green Peach Aphid)
Test compounds from 10′000 ppm DMSO stock solutions were applied by pipette into 24-well microtiter plates and mixed with sucrose solution. The plates were closed with a stretched Parafilm. A plastic stencil with 24 holes was placed onto the plate and infested pea seedlings were placed directly on the Parafilm. The infested plate was closed with a gel blotting paper and another plastic stencil and then turned upside down. The samples were assessed for mortality 5 days after infestation. […] A30 and A32.

[9] = system: Plutella xylostella (Diamond Back Moth); experiment: Activity against Plutella xylostella, treated artificial diet; conditions: 120 h, application rate of 200 ppm, L2 larvae on artificial diet, 5 days after infestation, read-out: effect in at least one of the two categories (mortality or growth inhibition)
Method: Example B8: Activity Against Plutella xylostella (Diamond Back Moth)
24-well microtiter plates with artificial diet were treated with aqueous test solutions prepared from 10′000 ppm DMSO stock solutions by pipetting. After drying, the plates were infested with L2 larvae (10 to 15 per well). The samples were assessed for mortality and growth inhibition in comparison to untreated samples 5 days after infestation.

[10] = system: Spodoptera littoralis (Egyptian Cotton Leaf Worm); experiment: Activity against Spodoptera littoralis, sprayed cotton leaf discs; conditions: foliar, 72 h, application rate of 200 ppm, L1 larvae on cotton leaf discs, 3 days after infestation, read-out: control (at least one of mortality, anti-feedant effect, growth inhibition)
Method: Example B9: Activity Against Spodoptera littoralis (Egyptian Cotton Leaf Worm)
Cotton leaf discs were placed on agar in 24-well microtiter plates and sprayed with aqueous test solutions prepared from 10′000 ppm DMSO stock solutions. After drying the leaf discs were infested with five L1 larvae. The samples were assessed for mortality, anti-feedant effect, and growth inhibition in comparison to untreated samples 3 days after infestation. Control of Spodoptera littoralis by a test sample is when at least one of mortality, anti-feedant effect, and growth inhibition is higher than the untreated sample.

[11] = system: Spodoptera littoralis (Egyptian Cotton Leaf Worm); experiment: Activity against Spodoptera littoralis, compound in agar taken up by lettuce; conditions: 144 h, test rate of 12.5 ppm, lettuce root uptake, 6 days after infestation, read-out: effect in at least one of the three categories (mortality, anti-feedancy, or growth inhibition)
Excerpt: Example B10: Activity Against Spodoptera littoralis (Egyptian Cotton Leaf Worm)
(§2) Test compounds were applied by pipette from 10′000 ppm DMSO stock solutions into 24-well plates and mixed with agar. Lettuce seeds were placed on the agar and the multi well plate was closed by another plate which contains also agar. After 7 days the roots have absorbed the compound and the lettuce has grown into the lid plate. The lettuce leafs were now cut off into the lid plate. Spodoptera eggs were pipetted through a plastic stencil on a humid gel blotting paper and the plate closed with it. The samples were assessed for mortality, anti-feedant effect and growth inhibition in comparison to untreated samples 6 days after infestation.

[12] = system: Spodoptera littoralis (Egyptian Cotton Leaf Worm); experiment: Activity against Spodoptera littoralis, systemic activity; conditions: 144 h, test rate of 12.5 ppm, in agar, lettuce root uptake, 6 days after infestation
Excerpt: Example B11: Activity Against Spodoptera littoralis (Egyptian Cotton Leaf Worm), Systemic Activity
as §2, with “mortality” for “mortality, anti-feedant effect and growth inhibition in comparison to untreated samples”

[13] = system: Thrips tabaci (Onion Thrips); experiment: Activity against Thrips tabaci, feeding/contact activity; conditions: foliar, 144 h, application rate of 200 ppm, thrips population of mixed ages on sunflower leaf discs, 6 days after infestation
Method: Example B13: Activity Against Thrips tabaci (Onion Thrips) Feeding/Contact Activity
as §1, with “in” for “in a”, “plates” for “plate”, “drying” for “drying,”, “a thrips” for “an aphid”

[14] = system: Aedes aegypti (Yellow Fever Mosquito); experiment: whole plant or invertebrate; conditions: 48 h, test rate of 5 ppm, L2 larvae in 96-well plates, incubation period of 2 days, read-out: effect in at least one of the two categories (mortality or growth inhibition)
Method: Example B14: Activity Against Aedes aegypti (Yellow Fever Mosquito)
10 to 15 Aedes larvae (L2) together with a nutrition mixture were placed in 96-well microtiter plates. Test compounds were pipetted into the wells. After an incubation period of 2 days insects were assessed for mortality and growth inhibition.

CCSc1cc(Br)cnc1-c1nc2cc(C(F)(F)F)n(C)c(=O)c2n1C [Compound A20, 2-(5-bromo-3-ethylsulfanyl-2-pyridyl)-3,5-dimethyl-6-(trifluoromethyl)imidazo[4,5-c]pyridin-4-one]
≥ 80%: mortality at 200 ppm [1] | mortality at 200 ppm [2] | mortality at 200 ppm [3]

CCS(=O)(=O)c1cc(C(F)(F)F)cnc1-c1nc2cc(C(F)(F)F)n(C)c(=O)c2n1C [Compound A1, 2-[3-ethylsulfonyl-5-(trifluoromethyl)-2-pyridyl]-3,5-dimethyl-6-(trifluoromethyl)imidazo[4,5-c]pyridin-4-one]
≥ 80%: mortality at 200 ppm [4] | mortality at 200 ppm [5] | mortality at 200 ppm [1] | mortality at 200 ppm [6] | mortality at 200 ppm [2] | mortality at 24 ppm [7] | mortality at 12 ppm [8] | percent effect (mortality or growth inhibition) at 200 ppm [9] | percent control (mortality, anti-feedant effect or growth inhibition) at 200 ppm [10] | percent control (mortality, anti-feedancy or growth inhibition) at 12.5 ppm [11] | mortality at 12.5 ppm [12] | mortality at 200 ppm [13] | percent effect (mortality or growth inhibition) at 5 ppm [14]
